The results in this text go back to patent US20250011330A1, “Imidazo[1,2- a]pyrazine and Imidazo[1,2- a]pyridine Based Tyrosyl-DNA Phosphodiesterase I (TDP1) Inhibitors” (The USA, As Represented by the Secretary, Department of …, priority 2021, published 2025).

One assay concerns the target TDP2 (Homo sapiens (Human), UniProt O95551). Description: gel-based TDP2 fluorescence assay in vitro. Conditions: Table 3; read-out: TDP2 IC50. It counts as biochemical.
The target of assay [1] is T1, TDP1 (Homo sapiens (Human), UniProt Q9NUW8). Description: TDP1 gel-based in vitro fluorescence assay. It counts as biochemical.
T1 sequence (Q9NUW8 whole entry): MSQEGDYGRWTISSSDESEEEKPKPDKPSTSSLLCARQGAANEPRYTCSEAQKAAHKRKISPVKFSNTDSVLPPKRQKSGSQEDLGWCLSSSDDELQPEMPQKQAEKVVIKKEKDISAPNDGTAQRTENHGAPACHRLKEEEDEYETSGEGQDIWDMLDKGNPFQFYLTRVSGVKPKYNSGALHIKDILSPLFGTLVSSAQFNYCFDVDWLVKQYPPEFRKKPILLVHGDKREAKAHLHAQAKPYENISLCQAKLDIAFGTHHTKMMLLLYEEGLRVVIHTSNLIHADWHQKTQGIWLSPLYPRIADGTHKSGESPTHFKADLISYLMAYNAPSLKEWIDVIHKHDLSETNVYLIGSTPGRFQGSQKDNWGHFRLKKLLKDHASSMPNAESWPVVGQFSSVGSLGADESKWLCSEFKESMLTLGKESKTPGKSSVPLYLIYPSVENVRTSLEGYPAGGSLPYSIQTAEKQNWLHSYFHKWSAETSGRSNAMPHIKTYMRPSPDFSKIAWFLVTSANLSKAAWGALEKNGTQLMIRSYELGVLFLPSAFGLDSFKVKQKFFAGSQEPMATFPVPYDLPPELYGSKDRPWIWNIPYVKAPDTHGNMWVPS
Assay [2] relates to human colon cancer cell line HCT116. Description: Synergistic effect with camptothecin (CPT) based on cell viability. Conditions: for Synergy Score: with camptothecin (CPT), HCT116, 72 h, SynergyFinder 2.0. The method, boiled down:
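HCT116 cells grown to 30% confluency were exposed for 72 h at 37 °C to serially diluted CPT (0-100 nM) with or without TDP1 inhibitors. Viable cells were counted from brightfield images; fractional affect and combination index came from CompuSyn, and synergy scores from SynergyFinder.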

The target of assay [3] is T1, TDP1. Description: Lineweaver-Burk plot analysis of TDP1 inhibition. It counts as biochemical. As for the experimental part:
Samples were then analyzed with a 20% DNA sequencing gel and exposed to a PhosphorImager screen for further analysis by Typhoon FLA 9500 (GE Healthcare). The Linearweaver-Burk plots (FIG. 1) were generated based on the substrate concentrations and corresponding reaction velocities.

For assay [4], the target named is whole cell extract (WCE) human TDP1 (Homo sapiens (Human), UniProt Q9NUW8). Description: gel based whole cell extract (WCE) human TDP1 fluorescence assay. It counts as biochemical. Conditions: read-out: WCE hTDP1 IC50.
Chain of whole cell extract (WCE) human TDP1 (Q9NUW8 whole entry): as above
Where [5] appears, read: Table 3, gel based TDP1 fluorescence assay, read-out: TDP1 IC50.
Where [6] appears, read: Table 3, values in brackets (footnote vi), read-out: TDP1 IC50 (μM), separated data from previous experiments.

Structures are written as SMILES. Read-outs that look alike come from different tables or passages of the source.

Chain of TDP2 (O95551 whole entry, species assumed): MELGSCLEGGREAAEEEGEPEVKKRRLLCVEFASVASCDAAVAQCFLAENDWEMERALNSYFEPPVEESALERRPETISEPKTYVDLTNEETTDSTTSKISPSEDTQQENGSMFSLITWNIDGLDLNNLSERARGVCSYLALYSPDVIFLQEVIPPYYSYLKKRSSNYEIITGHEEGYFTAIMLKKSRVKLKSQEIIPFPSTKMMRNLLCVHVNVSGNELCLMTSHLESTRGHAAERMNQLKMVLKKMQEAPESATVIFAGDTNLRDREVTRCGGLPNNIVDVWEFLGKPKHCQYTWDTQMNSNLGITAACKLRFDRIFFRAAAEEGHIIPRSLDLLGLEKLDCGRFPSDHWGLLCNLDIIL

In the case of `O=C(O)c1ccc(Nc2c(-c3ccccc3)nc3cnccn23)cc1C(=O)O` [Compound 10a, 4-((2-Phenylimidazo[1,2-a]pyrazin-3-yl)amino)phthalic acid], the IC50 on TDP2 was over 100 µM; at TDP1 [1] (Table 2, imidazo[1,2-a]pyrazin-3-amine core, read-out: IC50), 45.5 µM; at TDP1 [1] (setting [5]), over 100 µM; on TDP1 [1] (setting [6]), 45.5 µM. The “Synergy Score” value in assay [2] is reported as 4. Besides, the Ki is 110 ± 30.9 µM on TDP1 [3] (FIG. 1 legend, Lineweaver-Burk analysis, read-out: Inhibitory constant Ki) and 110 ± 30.9 µM at TDP1 [3] (Table 3, constant of inhibition (FIG. 1), read-out: Ki).
Take `O=C(O)c1ccc(Nc2c(-c3ccc(-c4ccccc4)cc3)nc3ccc(C(=O)O)cn23)cc1` [Compound 8n, 2-([1,1′-Biphenyl]-4-yl)-3-((4-carboxyphenyl)amino)imidazo[1,2-a]pyridine-6-carboxylic acid]: the IC50 in assay [4] was over 100 µM; at TDP2, over 100 µM; at TDP1 [1] (Table 1, imidazo[1,2-a]pyridin-3-amines, read-out: IC50), 1.5 µM; on TDP1 [1] (setting [5]), 2.94 ± 0.47 µM; on TDP1 [1] (setting [6]), 1.5 µM. In addition, the “TDP1 Selectivity” value at TDP1 [1] (ratio of IC50 values of TDP1/TDP2) was over 34. For the same compound, the synergy with camptothecin result in assay [2] (list in description) is listed as “exhibit synergy with camptothecin”. Moreover, in assay [2], the “Synergy Score” value stood at 11.3.

The term IC50 denotes the midpoint of a concentration-inhibition curve. As usually defined, the Ki is a measure of affinity in units of concentration, obtained from inhibition or displacement.
